Results: PubChem BioAssay (NCI)
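Assay format: 96-well plates, 48-hour exposure. TGI: total growth inhibition.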

Experiments:
Test in all cases: NCI tumour cell line growth inhibition, 48 h
UACC-62 melanoma = system: UACC-62 melanoma
CCRF-CEM leukemia = system: CCRF-CEM leukemia
HCC-2998 colon = system: HCC-2998 colon
NCI-H226 lung = system: NCI-H226 lung
SNB-75 CNS = system: SNB-75 CNS
HOP-62 NSCLC = system: HOP-62 NSCLC
DMS 273 small cell lung = system: DMS 273 small cell lung
EKVX NSCLC = system: EKVX NSCLC
M19-MEL melanoma = system: M19-MEL melanoma
SF-539 CNS = system: SF-539 CNS
TK-10 renal = system: TK-10 renal
K-562 leukemia = system: K-562 leukemia
OVCAR-3 ovarian = system: OVCAR-3 ovarian
A549 NSCLC = system: A549 NSCLC
OVCAR-8 ovarian = system: OVCAR-8 ovarian
SK-MEL-28 melanoma = system: SK-MEL-28 melanoma
IGROV1 ovarian = system: IGROV1 ovarian
UO-31 renal = system: UO-31 renal
XF 498 CNS = system: XF 498 CNS
A498 renal = system: A498 renal
SW-620 colon = system: SW-620 colon
SF-295 CNS = system: SF-295 CNS
OVCAR-4 ovarian = system: OVCAR-4 ovarian
HCT-116 colon = system: HCT-116 colon
RPMI-8226 leukemia = system: RPMI-8226 leukemia
SNB-19 CNS = system: SNB-19 CNS
COLO 205 colon = system: COLO 205 colon
NCI-H460 lung = system: NCI-H460 lung
HL-60(TB) leukemia = system: HL-60(TB) leukemia
ACHN renal = system: ACHN renal
KM20L2 colon = system: KM20L2 colon
SN12C renal = system: SN12C renal
786-0 renal = system: 786-0 renal
DLD-1 colon = system: DLD-1 colon
SK-MEL-2 melanoma = system: SK-MEL-2 melanoma
NCI-H23 lung = system: NCI-H23 lung
RXF-631 renal = system: RXF-631 renal
SR leukemia = system: SR leukemia
M14 melanoma = system: M14 melanoma
SF-268 CNS = system: SF-268 CNS
HT29 colon = system: HT29 colon
SK-MEL-5 melanoma = system: SK-MEL-5 melanoma
MOLT-4 leukemia = system: MOLT-4 leukemia
RXF 393 renal = system: RXF 393 renal
DMS 114 small cell lung = system: DMS 114 small cell lung
HCT-15 colon = system: HCT-15 colon
MALME-3M melanoma = system: MALME-3M melanoma
U251 CNS = system: U251 CNS
LXFL 529 NSCLC = system: LXFL 529 NSCLC
UACC-257 melanoma = system: UACC-257 melanoma
LOX IMVI melanoma = system: LOX IMVI melanoma
NCI-H522 lung = system: NCI-H522 lung
SK-OV-3 ovarian = system: SK-OV-3 ovarian
HOP-18 NSCLC = system: HOP-18 NSCLC
CAKI-1 renal = system: CAKI-1 renal
SNB-78 CNS = system: SNB-78 CNS
HOP-92 NSCLC = system: HOP-92 NSCLC
KM12 colon = system: KM12 colon
OVCAR-5 ovarian = system: OVCAR-5 ovarian

Measured: TGI

O=c1c2c([nH]c3cc4c(cc13)OCO4)-c1ccccc1CC2
not listed: NCI-H522 lung | SK-OV-3 ovarian | HOP-18 NSCLC | CAKI-1 renal | SNB-78 CNS | HOP-92 NSCLC | KM12 colon | OVCAR-5 ovarian
> 100 µM: all other assays above

COc1ccc(-c2cc(=O)c3cc4c(cc3[nH]2)OCO4)c(OC)c1OC
82.2 µM: SNB-75 CNS
70.9 µM: SR leukemia
not listed: A498 renal | RXF-631 renal | UACC-257 melanoma | OVCAR-5 ovarian
> 100 µM: all other assays above

Cc1cccc(NC(=O)CC(=O)N2N=C(N(CCC#N)c3ccc(Cl)cc3)CC2c2ccccc2)c1 (configuration not stated)
not listed: NCI-H226 lung | EKVX NSCLC | A498 renal | RPMI-8226 leukemia | KM20L2 colon | SK-MEL-2 melanoma | HCT-15 colon | SK-OV-3 ovarian
> 100 µM: all other assays above

COc1cc2c(cc1OC)C(N(C)C)C(c1ccccc1)=C2Cl (configuration not stated)
29.3 µM: RXF 393 renal
50.4 µM: SR leukemia
30.9 µM: DMS 273 small cell lung
57.9 µM: KM12 colon
73.9 µM: 786-0 renal
> 100 µM: CCRF-CEM leukemia | OVCAR-5 ovarian | TK-10 renal | K-562 leukemia | HOP-18 NSCLC | SNB-19 CNS
32.3 µM: DLD-1 colon
56.4 µM: NCI-H226 lung
29.8 µM: SW-620 colon
36.7 µM: HOP-92 NSCLC
32.6 µM: COLO 205 colon
58.6 µM: KM20L2 colon
39.6 µM: MOLT-4 leukemia
48.7 µM: SNB-75 CNS
36.4 µM: HT29 colon
65 µM: OVCAR-4 ovarian
98.8 µM: HOP-62 NSCLC
21.7 µM: NCI-H522 lung
59.7 µM: A498 renal
32.4 µM: NCI-H23 lung
31.9 µM: LOX IMVI melanoma
40.5 µM: UACC-257 melanoma
49.7 µM: SF-295 CNS
47.5 µM: IGROV1 ovarian
40.8 µM: OVCAR-3 ovarian
46.3 µM: RPMI-8226 leukemia
45.9 µM: SK-OV-3 ovarian
37.7 µM: SF-539 CNS
43.3 µM: SN12C renal
30.5 µM: RXF-631 renal
32 µM: UO-31 renal
65.8 µM: HL-60(TB) leukemia
47.8 µM: OVCAR-8 ovarian
39.2 µM: NCI-H460 lung
39.1 µM: M19-MEL melanoma
30.3 µM: U251 CNS
36 µM: SK-MEL-28 melanoma | SK-MEL-2 melanoma
34.1 µM: HCT-15 colon
34.3 µM: M14 melanoma
